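These data come from cells grown in 96-well plates and exposed to compound for 48 hours at five concentrations. GI50 is the concentration that inhibits growth by half. TGI is the concentration that stops growth completely.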
Tests used:
Assay in all cases: growth of human tumour cells (NCI), 48 h
SF-539 CNS = tested on: SF-539 CNS
NCI-H460 lung = tested on: NCI-H460 lung
CCRF-CEM leukemia = tested on: CCRF-CEM leukemia
HCC-2998 colon = tested on: HCC-2998 colon
RPMI-8226 leukemia = tested on: RPMI-8226 leukemia
KM12 colon = tested on: KM12 colon
OVCAR-8 ovarian = tested on: OVCAR-8 ovarian
BT-549 breast = tested on: BT-549 breast
EKVX NSCLC = tested on: EKVX NSCLC
NCI/ADR-RES ovarian = tested on: NCI/ADR-RES ovarian
K-562 leukemia = tested on: K-562 leukemia
UACC-257 melanoma = tested on: UACC-257 melanoma
HOP-92 NSCLC = tested on: HOP-92 NSCLC
MOLT-4 leukemia = tested on: MOLT-4 leukemia
SK-OV-3 ovarian = tested on: SK-OV-3 ovarian
UACC-62 melanoma = tested on: UACC-62 melanoma
LOX IMVI melanoma = tested on: LOX IMVI melanoma
PC-3 prostate = tested on: PC-3 prostate
NCI-H23 lung = tested on: NCI-H23 lung
RXF 393 renal = tested on: RXF 393 renal
IGROV1 ovarian = tested on: IGROV1 ovarian
U251 CNS = tested on: U251 CNS
HT29 colon = tested on: HT29 colon
786-0 renal = tested on: 786-0 renal
HCT-116 colon = tested on: HCT-116 colon
T-47D breast = tested on: T-47D breast
A549 NSCLC = tested on: A549 NSCLC
NCI-H226 lung = tested on: NCI-H226 lung
HL-60(TB) leukemia = tested on: HL-60(TB) leukemia
DU-145 prostate = tested on: DU-145 prostate
SW-620 colon = tested on: SW-620 colon
COLO 205 colon = tested on: COLO 205 colon
SK-MEL-5 melanoma = tested on: SK-MEL-5 melanoma
SK-MEL-2 melanoma = tested on: SK-MEL-2 melanoma
MDA-MB-231 breast = tested on: MDA-MB-231 breast
M14 melanoma = tested on: M14 melanoma
SK-MEL-28 melanoma = tested on: SK-MEL-28 melanoma
MCF7 breast = tested on: MCF7 breast
TK-10 renal = tested on: TK-10 renal
ACHN renal = tested on: ACHN renal
UO-31 renal = tested on: UO-31 renal
HCT-15 colon = tested on: HCT-15 colon
HOP-62 NSCLC = tested on: HOP-62 NSCLC
NCI-H522 lung = tested on: NCI-H522 lung
SN12C renal = tested on: SN12C renal
OVCAR-4 ovarian = tested on: OVCAR-4 ovarian
SNB-19 CNS = tested on: SNB-19 CNS
SF-268 CNS = tested on: SF-268 CNS
SNB-75 CNS = tested on: SNB-75 CNS

Structure (SMILES): COc1ccc(/C(COc2c(-c3ccccc3)oc3ccccc3c2=O)=N\O)cc1
- GI50 (SF-539 CNS): 13.5 µM
- TGI (SF-539 CNS): 27.9 µM
- GI50 (NCI-H460 lung): 12.3 µM
- TGI (NCI-H460 lung): 39.6 µM
- GI50 (CCRF-CEM leukemia): 37 µM
- TGI (CCRF-CEM leukemia): > 50 µM
- GI50 (HCC-2998 colon): 8.42 µM
- TGI (HCC-2998 colon): 22.3 µM
- GI50 (RPMI-8226 leukemia): 21.5 µM
- TGI (RPMI-8226 leukemia): > 50 µM
- GI50 (KM12 colon): 9.46 µM
- TGI (KM12 colon): 23.4 µM
- GI50 (OVCAR-8 ovarian): 47.6 µM
- TGI (OVCAR-8 ovarian): > 50 µM
- GI50 (BT-549 breast): 12.3 µM
- TGI (BT-549 breast): 25.6 µM
- GI50 (EKVX NSCLC): 14.2 µM
- TGI (EKVX NSCLC): > 50 µM
- GI50 (NCI/ADR-RES ovarian): 11.4 µM
- TGI (NCI/ADR-RES ovarian): 39.6 µM
- GI50 (K-562 leukemia): 18.9 µM
- TGI (K-562 leukemia): > 50 µM
- GI50 (UACC-257 melanoma): 17.8 µM
- TGI (UACC-257 melanoma): > 50 µM
- GI50 (HOP-92 NSCLC): > 50 µM
- TGI (HOP-92 NSCLC): > 50 µM
- GI50 (MOLT-4 leukemia): 22.9 µM
- TGI (MOLT-4 leukemia): > 50 µM
- GI50 (SK-OV-3 ovarian): 16.9 µM
- TGI (SK-OV-3 ovarian): > 50 µM
- GI50 (UACC-62 melanoma): 12.7 µM
- TGI (UACC-62 melanoma): 43.5 µM
- GI50 (LOX IMVI melanoma): 12.4 µM
- TGI (LOX IMVI melanoma): 26.5 µM
- GI50 (PC-3 prostate): 13.4 µM
- TGI (PC-3 prostate): 35.5 µM
- GI50 (NCI-H23 lung): 24.2 µM
- TGI (NCI-H23 lung): > 50 µM
- GI50 (RXF 393 renal): 31.9 µM
- TGI (RXF 393 renal): > 50 µM
- GI50 (IGROV1 ovarian): 22.9 µM
- TGI (IGROV1 ovarian): > 50 µM
- GI50 (U251 CNS): 18.9 µM
- TGI (U251 CNS): > 50 µM
- GI50 (HT29 colon): 20.7 µM
- TGI (HT29 colon): > 50 µM
- GI50 (786-0 renal): 40.6 µM
- TGI (786-0 renal): > 50 µM
- GI50 (HCT-116 colon): 21.8 µM
- TGI (HCT-116 colon): > 50 µM
- GI50 (T-47D breast): 13.5 µM
- TGI (T-47D breast): 41.6 µM
- GI50 (A549 NSCLC): 23.2 µM
- TGI (A549 NSCLC): > 50 µM
- GI50 (NCI-H226 lung): 20.8 µM
- TGI (NCI-H226 lung): > 50 µM
- GI50 (HL-60(TB) leukemia): 20 µM
- TGI (HL-60(TB) leukemia): > 50 µM
- GI50 (DU-145 prostate): 22 µM
- TGI (DU-145 prostate): > 50 µM
- GI50 (SW-620 colon): 19.5 µM
- TGI (SW-620 colon): > 50 µM
- GI50 (COLO 205 colon): 12 µM
- TGI (COLO 205 colon): 30.9 µM
- GI50 (SK-MEL-5 melanoma): 9.61 µM
- TGI (SK-MEL-5 melanoma): 20.1 µM
- GI50 (SK-MEL-2 melanoma): 9.82 µM
- TGI (SK-MEL-2 melanoma): 45.5 µM
- GI50 (MDA-MB-231 breast): 18.3 µM
- TGI (MDA-MB-231 breast): > 50 µM
- GI50 (M14 melanoma): 28.3 µM
- TGI (M14 melanoma): > 50 µM
- GI50 (SK-MEL-28 melanoma): 15 µM
- TGI (SK-MEL-28 melanoma): > 50 µM
- GI50 (MCF7 breast): 10.8 µM
- TGI (MCF7 breast): 29.5 µM
- GI50 (TK-10 renal): 10.2 µM
- TGI (TK-10 renal): 26.2 µM
- GI50 (ACHN renal): 10.6 µM
- TGI (ACHN renal): 26.3 µM
- GI50 (UO-31 renal): 41.4 µM
- TGI (UO-31 renal): > 50 µM
- GI50 (HCT-15 colon): 19.5 µM
- TGI (HCT-15 colon): > 50 µM
- GI50 (HOP-62 NSCLC): 49.6 µM
- TGI (HOP-62 NSCLC): > 50 µM
- GI50 (NCI-H522 lung): 11.1 µM
- TGI (NCI-H522 lung): 28.5 µM
- GI50 (SN12C renal): 10.6 µM
- TGI (SN12C renal): 33.9 µM
- GI50 (OVCAR-4 ovarian): 37.1 µM
- TGI (OVCAR-4 ovarian): > 50 µM
- GI50 (SNB-19 CNS): 17.5 µM
- TGI (SNB-19 CNS): > 50 µM
- GI50 (SF-268 CNS): 13.4 µM
- TGI (SF-268 CNS): 41 µM
- GI50 (SNB-75 CNS): 22.2 µM
- TGI (SNB-75 CNS): > 50 µM

From PubChem BioAssay (NCI)
